The results in this text go back to patent US20090075983A1 (priority 2006, published 2009).

By IC50 is commonly meant the midpoint of a concentration-inhibition curve. The melting point is the temperature, or range, at which the solid turns liquid.

The target in data set [1] is T1, α7-subtype of nicotinic receptors (Rattus norvegicus, UniProt Q05941).
T1 construct: Cerebral cortices from male Wistar rats (150-250 g) are homogenised; from tissue; host or cells: rat cerebral cortex membrane homogenate
T1 sequence (Q05941 23-502): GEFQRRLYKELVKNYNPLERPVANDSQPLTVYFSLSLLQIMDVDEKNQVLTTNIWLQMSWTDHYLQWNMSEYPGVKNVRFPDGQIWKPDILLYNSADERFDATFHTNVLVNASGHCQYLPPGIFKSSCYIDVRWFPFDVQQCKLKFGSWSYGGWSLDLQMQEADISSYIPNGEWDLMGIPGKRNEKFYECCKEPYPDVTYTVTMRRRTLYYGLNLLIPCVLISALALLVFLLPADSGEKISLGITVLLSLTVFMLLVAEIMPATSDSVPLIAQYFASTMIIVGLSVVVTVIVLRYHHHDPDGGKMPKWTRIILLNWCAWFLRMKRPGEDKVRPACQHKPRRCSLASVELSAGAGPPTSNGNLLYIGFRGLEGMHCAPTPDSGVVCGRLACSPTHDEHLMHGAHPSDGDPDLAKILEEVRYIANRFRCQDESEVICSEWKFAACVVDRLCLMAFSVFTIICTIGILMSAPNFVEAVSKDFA
Kind of data set: biochemical. To be noted: read-out: Inhibition of 3H-α-Bungarotoxine Binding IC50.

The compound `O=C(O)/C=C/C(=O)O.O=C(Oc1ccc(C#Cc2ccccc2)cc1)N1CCN2CCC1CC2` [Compound A1, 1,4-Diaza-bicyclo[3.2.2]nonane-4-carboxylic acid 4-phenylethynyl-phenyl ester fumaric acid salt] gave a melting point of 160 to 177 °C. The IC50 in data set [1] came out at 420 nM.

Consider `Cl.O=C(Nc1ccc(OC(=O)N2CCN3CCC2CC3)cc1)c1ccccc1` [Compound C1, 1,4-Diaza-bicyclo[3.2.2]nonane-4-carboxylic acid 4-benzoylamino-phenyl ester hydrochloric acid salt], for which the melting point was over 270 °C. Further, in data set [1], the 50% inhibitory concentration (IC50) came to 560 nM.
